What was measured:
Format in all cases: functional
Conditions in all cases: time 26 hrs
SH-SY5Y [1] = experiment: Neuroprotection against Abeta-induced oxidative stress in human SH-SY5Y cells assessed as cell protection at 1 mM incubated for 2 hr before Abeta(1-42) challenge and measured after 24 hrs by MTT assay
SH-SY5Y [2] = experiment: Neuroprotection against H202-induced oxidative stress in human SH-SY5Y cells assessed as cell protection at 1 mM preincubated for 2 hr before H202 challenge and measured after 24 hrs by MTT assay
SH-SY5Y [3] = experiment: Neuroprotection against 6-OHDA-induced oxidative stress in human SH-SY5Y cells assessed as cell protection at 1 mM preincubated for 2 hr before 6-OHDA challenge and measured after 24 hrs by MTT assay

CC(=O)N[C@@H](CS)C(=O)O [ACETYLCYSTEINE] was tested, and the Activity (SH-SY5Y [1]) was 67.6%, the Activity (SH-SY5Y [2]) was 84.73% and the Activity (SH-SY5Y [3]) was 83.59%.
